Patent US9371335B2, “Spirothienopyran-piperidine derivatives as ORL-1 receptor antagonists for their use in the treatment of alcohol dependence and abuse” (Eli Lilly and Company, priority 2011, dated 2016)

Columns and labels:
msP rats = assay: Stress-induced (yohimbine) reinstatement of ethanol-seeking in msP rats; format: in vivo, rat; details: for Reduction vs. Vehicle (lever presses, yohimbine reinstatement) / Avg Lever Presses (Drug-treated): male msP rats, 30 mg/kg oral; for Avg Lever Presses (Drug-treated): yohimbine 2.0 mg/kg ip; for stress-induced reinstatement of ethanol-seeking: msP rats, result in words
Source text: Stress-Induced Reinstatement in msP Rats:
Stress is a key trigger for relapse to drug- and alcohol-seeking in humans and rodents (Sinha R (2008) Chronic stress, drug use, and vulnerability to addiction. Ann N Y Acad Sci 1141:105-130), and can be modeled in rats using a stress-induced reinstatement procedure. In this procedure, stress-induced reinstatement of alcohol-seeking is elicited by administration of the alpha2 adrenoceptor antagonist yohimbine, a known pharmacological stressor (Le A D, Harding S, Juzytsch W, Funk D and Shaham Y (2005) Role of alpha-2 adrenoceptors in stress-induced reinstatement of alcohol seeking and alcohol self-administration in rats. Psychopharmacology (Berl) 179:366-373).
Male msP rats are obtained from the University of Camerino (Marche, Italy) and individually housed with ad libitum access to water and standard laboratory chow. Rats are trained to lever press for 10% ethanol in water (v/v) in standard operant chambers (MED Associates, Inc., St. Albans, Vt.) located in sound-attenuating, ventilated environmental cubicles. The chambers consist of two stainless steel and two clear Plexiglas walls. The floor grid of the operant chambers consists of 0.5 cm diameter stainless steel bars placed approximately 1.5 cm apart. Each operant chamber is equipped with a drinking reservoir 4 cm above the grid floor, with two retractable operant levers located approximately 3 cm on either side of the drinking receptacle. Fluid delivery, lever presses, and presentation of visual stimuli (illumination of a white house light) are controlled by an IBM compatible computer for offline analysis.
Rats are first trained to self-administer ethanol solution in 30-min daily operant sessions under a FR1 schedule of reinforcement, in which each response on the active lever results in delivery of 0.1 ml of ethanol. Each ethanol delivery is associated with a 5-sec time-out signalled by illumination of a white house light. Alcohol self-administration training continues until stable baseline responding is achieved. […] The procedure of each session is the same as ethanol self-administration sessions except that the lever responses are no longer reinforced. Animals are pre-treated with vehicle for 3 days before the initial administration of ORL-1 receptor antagonists in order to familiarize them with the oral administration procedure. The msP rats are then subjected to the reinstatement test conducted under the same extinction conditions. Reinstatement consists of oral administration of vehicle or test compound (3 or 30 mg/kg, n=10/group, solubilized in a 1:1 mixture of distilled water and 1M H3PO4, using gentle warming in a 45-60° C. water bath), followed 30-min later by intraperitoneal administration of yohimbine (2.0 mg/kg) 30-min before the operant session.

[1] = test system: Alcohol-Preferring (P) rats; assay: Operant ethanol self-administration in P rats (progressive ratio schedule); format: in vivo, rat; details: for ethanol-motivated responding: P rats on progressive ratio schedule, result in words; for Reduction vs. Vehicle (lever presses) / Mean Number of Lever Presses (Drug-treated): female P rats; for Mean Number of Lever Presses (Drug-treated): 30-min progressive ratio session
Source text: Operant Self-Administration in P rats:
Female P rats are obtained and pair-housed from a private colony (Taconic, Germantown, N.Y.). In order to reduce novelty-induced avoidance of ethanol, the water bottle on the homecage is replaced with a bottle containing 15% ethanol in water (v/v, in water) for two days prior to operant training. Throughout the rest of the experiment, rats receive ad libitum access to water and standard laboratory chow, with no further access to ethanol in the homecage.
Rats are trained to press a lever for ethanol reinforcement in daily 30-min sessions conducted in standard rat operant chambers contained within sound-attenuating chambers (MED Associates, Inc., St. Albans, Vt.). The chambers consist of two stainless steel and two clear Plexiglas walls. The floor grid of the operant chambers consists of 0.5 cm diameter stainless steel bars placed approximately 1.5 cm apart. Each operant chamber contains two retractable operant levers located approximately 6 cm above the grid floor and 13 cm apart. A recessed trough is located in the space between the levers, through which a dipper cup (0.1 mL capacity) is raised to deliver response-contingent ethanol (15%, v/v, in water). Upon a reinforced response, a stimulus light is illuminated above the lever on which the response was made throughout the 4-sec dipper cup access. Operation of the stimuli and behavioral responses are controlled and recorded by personal computer for offline analysis (MED Associates, Inc., St. Albans, Vt.).
During operant training, responses on either lever are considered correct responses and are rewarded with 0.1 mL ethanol reinforcement. […] Once stable baseline responding is reached on an FR-1 schedule of reinforcement, the response contingency is increased to FR-2 and then again to FR-3 so that 3 lever presses are required for each reinforcement. […] Specifically, the response requirement is increased as follows: all rats begin each session at an FR-1 schedule of reinforcement; after three reinforcements, the schedule is increased to FR-2; after three reinforcements at that level, the schedule is increased by two to FR-4; after three reinforcements, the schedule is increased by two to FR-6; and so on (see for e.g. Oster S M, Toalston J E, Kuc K A, Pommer T J, Murphy J M, Lumeng L, Bell R L, McBride W J and Rodd Z A (2006) Effects of multiple alcohol deprivations on operant ethanol self-administration by high-alcohol-drinking replicate rat lines. Alcohol 38:155-164). Each session lasts a total of 30 min, after which, all stimuli are turned off and levers are retracted. […] The amount of ethanol consumed is calculated from the number of active lever presses, and converted into g/kg EtOH consumed. Rats receive oral administration of vehicle or test compound in the dose range of 3, 10, or 30 mg/kg (3 mL/kg dose volume, dissolved in a vehicle consisting of 20% Captisol® in 25 mM phosphate buffer at pH=2), or the nonselective opioid receptor antagonist naltrexone (10 mg/kg) as a positive control, 60 min. prior to the session, using a within-subjects, crossover design (3-4 day washout between subsequent doses). On a separate occasion, rats receive oral administration of vehicle or 30 mg/kg test compound (1 mL/kg dose volume, dissolved in a vehicle consisting of 20% Captisol® in 25 mM phosphate buffer), 30 min prior to the session, using a crossover design.

Structure (SMILES)	Reduction vs. Vehicle (lever presses, yohimbine reinstatement) (msP rats) [%]	Avg Lever Presses (Drug-treated) (msP rats)	stress-induced reinstatement of ethanol-seeking (msP rats)	ethanol-motivated responding [1]	Reduction vs. Vehicle (lever presses) ([1]; 3 mg/kg oral) [%]	Mean Number of Lever Presses (Drug-treated) ([1]; 3 mg/kg oral)	Reduction vs. Vehicle (lever presses) ([1]; 10 mg/kg oral) [%]	Mean Number of Lever Presses (Drug-treated) ([1]; 10 mg/kg oral)	Reduction vs. Vehicle (lever presses) ([1]; 30 mg/kg oral) [%]	Mean Number of Lever Presses (Drug-treated) ([1]; 30 mg/kg oral)
Cc1nn(-c2ncccc2CO)cc1CN1CCC2(CC1)OCC(F)(F)c1cc(Cl)sc12 [Compound 1, [2-[4-[(2-chloro-4,4-difluoro-spiro[5H-thieno[2,3-c]pyran-7,4′-piperidine]-1′-yl)methyl]-3-methyl-pyrazol-1-yl]-3-pyridyl]methanol]	72.7	4.8	reduce stress-induced reinstatement of ethanol-seeking	reduce ethanol-motivated responding	4.6	412.58	23.7	330	55.8	191.25
Cc1nn(-c2ncccc2F)cc1CN1CCC2(CC1)OCC(F)(F)c1cc(Cl)sc12 [Compound 2, 2-Chloro-4,4-difluoro-1′-[[1-(3-fluoro-2-pyridyl)-3-methyl-pyrazol-4-yl]methyl]spiro[5H-thieno[2,3-c]pyran-7,4′-piperidine]]	69.3	5.5	reduce stress-induced reinstatement of ethanol-seeking	reduce ethanol-motivated responding					61.9	143.31
